Experimental data from PMC3675114, “Structural Basis and Selectivity of Tankyrase Inhibition by a Wnt Signaling Inhibitor WIKI4” (PLoS ONE, 2013).

Target: T1, Tankyrase 1 (TNKS1) (Homo sapiens, UniProt O95271)
T1 construct: gene TNKS
Assay: fluorescence-based homogeneous NAD+ consumption activity assay
Format: biochemical

T1 sequence (O95271 whole entry): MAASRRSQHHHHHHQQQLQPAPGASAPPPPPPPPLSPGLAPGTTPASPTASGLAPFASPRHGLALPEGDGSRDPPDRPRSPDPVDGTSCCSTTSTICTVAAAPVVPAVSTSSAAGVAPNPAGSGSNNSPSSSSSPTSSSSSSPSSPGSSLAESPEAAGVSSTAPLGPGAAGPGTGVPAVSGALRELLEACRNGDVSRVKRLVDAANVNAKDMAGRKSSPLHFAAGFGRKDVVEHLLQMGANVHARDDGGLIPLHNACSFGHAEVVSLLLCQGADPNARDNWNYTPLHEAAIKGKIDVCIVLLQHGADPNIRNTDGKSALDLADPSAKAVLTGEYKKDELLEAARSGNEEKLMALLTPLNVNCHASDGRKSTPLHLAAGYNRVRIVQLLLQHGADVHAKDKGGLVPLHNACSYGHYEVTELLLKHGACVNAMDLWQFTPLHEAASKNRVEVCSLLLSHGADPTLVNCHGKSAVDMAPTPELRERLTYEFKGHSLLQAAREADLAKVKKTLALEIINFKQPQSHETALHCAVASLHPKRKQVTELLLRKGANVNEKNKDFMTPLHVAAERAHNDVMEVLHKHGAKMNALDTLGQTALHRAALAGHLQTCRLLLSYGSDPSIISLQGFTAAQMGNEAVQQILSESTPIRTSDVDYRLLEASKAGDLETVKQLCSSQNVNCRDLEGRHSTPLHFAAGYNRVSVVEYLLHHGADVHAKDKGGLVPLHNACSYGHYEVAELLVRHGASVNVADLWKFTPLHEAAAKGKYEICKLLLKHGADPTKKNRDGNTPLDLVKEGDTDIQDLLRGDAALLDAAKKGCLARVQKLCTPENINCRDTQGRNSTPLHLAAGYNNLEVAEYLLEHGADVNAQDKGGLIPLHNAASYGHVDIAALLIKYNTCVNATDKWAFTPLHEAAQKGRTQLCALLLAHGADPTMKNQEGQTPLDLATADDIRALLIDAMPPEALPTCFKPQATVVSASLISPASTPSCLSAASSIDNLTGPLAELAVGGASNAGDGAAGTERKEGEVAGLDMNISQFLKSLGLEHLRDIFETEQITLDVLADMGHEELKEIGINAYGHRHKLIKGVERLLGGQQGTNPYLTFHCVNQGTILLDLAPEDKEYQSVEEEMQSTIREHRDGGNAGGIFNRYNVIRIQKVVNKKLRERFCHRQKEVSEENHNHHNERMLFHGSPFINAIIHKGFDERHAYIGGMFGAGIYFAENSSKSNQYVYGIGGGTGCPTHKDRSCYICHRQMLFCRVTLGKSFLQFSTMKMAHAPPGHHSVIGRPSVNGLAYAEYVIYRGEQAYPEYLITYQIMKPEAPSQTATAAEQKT

COc1ccc(-n2c(SCCCN3C(=O)c4cccc5cccc(c45)C3=O)nnc2-c2ccncc2)cc1 [WIKI4]
IC50: 0.026 µM
